These results are taken from doi:10.1101/2022.07.05.498881v1 (biorxiv, 2022).

The first assay addresses T1, SARS-CoV-2 MPro (main protease, 3CL protease, Nsp5) (Severe acute respiratory syndrome coronavirus 2, UniProt P0DTD1).
T1 construct: gene rep
Briefly: fluorogenic NSP7 peptide cleavage, […] h preincubation, […] °C.
Settings: not given
The assay is classed as biochemical.
Regarding `O=Cc1cncc(C(=O)N2CCCC2c2cccc3ccccc23)c1` (centres unmarked) ['0292], the IC50 (as a rule, the concentration needed to halve the response being measured) was 100 µM.

Regarding `N#CC(C(=O)c1cccnc1)c1cc(F)cc(F)c1` (centres unmarked) ['0431], the IC50 is 50 µM.

The compound `CC1(Cc2ccc(F)cc2)CCCN1c1ncc(C=O)cn1` (centres unmarked) ['0892] came in with an IC50 of 140 µM.

For the compound `Cc1noc(CCCOc2c(C)cc(Br)cc2C=O)n1` ['2961], inhibition was half-maximal at 100 µM (IC50).

The compound `O=Cc1ncc(Br)cc1OCc1ccc2c(c1)COC2` ['3620] registered an IC50 of 55 µM.

The compound `O=Cc1ccc(Br)cc1OCc1ccc(Cl)c([N+](=O)[O-])c1` ['4218] registered an IC50 above 200 µM.

For the compound `N#CC(C(=O)c1ccc([N+](=O)[O-])o1)c1cccnc1` (centres unmarked) ['5103], it took 20 µM to reach half-maximal inhibition (IC50).

The compound `O=Cc1cnc(N2CC(c3nc4ccccc4[nH]3)C2)nc1` ['5156] registered an IC50 of 80 µM.

For `O=C1CN(Cc2ccc(F)cc2)C(=O)N1c1cncc2ccccc12` ['5548], the IC50 is 30 µM.

`O=C1N[C@@]2(CCc3ccccc32)C(=O)N1c1cncc2ccccc12` ['6111] had an IC50 of 25 µM.

In turn, `O=Cc1ncc(Br)cc1OCc1cc(Cl)cc(Br)c1` ['6117] gave an IC50 of 7 µM.

For the compound `N#Cc1ccc(Br)c(COc2cc(Br)cnc2C=O)c1` ['6690], half-maximal inhibition (IC50) was put at 2 µM.

In the case of `Cc1c(C(=O)C(C#N)C(=O)Nc2ccccc2)nnn1-c1ccccc1` (centres unmarked) ['6792], the IC50 came out at 100 µM.

The compound `O=Cc1ncc(Br)cc1OCc1ccc(Cl)c([N+](=O)[O-])c1` ['7021] gave an IC50 of 1 µM.

In the case of `O=Cc1ncc(Br)cc1OCc1ccc2ccccc2c1` ['7356], the IC50 was found to be 26 µM.

Turning to `O=Cc1ncc(Br)cc1OCc1cc(Br)ccc1Cl` ['8252], the IC50 stood at 6 µM.

The compound `O=Cc1ncc(Br)cc1OCc1cccc([N+](=O)[O-])c1` ['9112] returned an IC50 of 35 µM.

As for `O=Cc1ncc(Br)cc1OCc1ccc(Cl)c(Br)c1` ['9121], the IC50 worked out at 6 µM.

For the compound `Cc1ccc(COc2cc(Br)cnc2C=O)cc1[N+](=O)[O-]` ['9218], the IC50 worked out at 12 µM.

For `O=Cc1ncc(Br)cc1OCc1cccc([N+](=O)[O-])c1Cl` ['9220], half-maximal inhibition (IC50) was put at 33 µM.

`O=Cc1ncc(Br)cc1OCc1ccc(Cl)cc1` ['9313] registered an IC50 of 22 µM.

As to `C[C@H]1CN(C(=O)Nc2cncc3ccccc23)Cc2ccccc2O1` [SG-0001], half-maximal inhibition (IC50) was put at 55 µM.

`COc1ccc(Br)cc1C(=O)C(=O)Nc1cncc(C)c1` [Z1355254448] displayed an IC50 of 110 µM.

In turn, `CSc1ccncc1NC(=O)C(=O)c1ccc(F)cc1` [Z1669286714] registered an IC50 of 110 µM.

`Cn1cccc1C(=O)C(=O)Nc1cnccc1Oc1ccccc1` [Z2195811405]: the IC50 was around 200 µM.

`O=C1CCN(Cc2cccs2)C(=O)N1Cc1ccc[nH]c1=O` [Z3535317212] showed an IC50 of 29 µM.

Regarding `CC1(C)CN(C(=O)Nc2cncc3ccccc23)Cc2cc(Br)ccc2O1` [Z4924562413], half-maximal inhibition (IC50) was put at 13 µM.

With `O=C1NC(c2cccc3ccccc23)C(=O)N1c1cncc2ccccc12` (centres unmarked) [Z4929615577], it took 10 µM to reach half-maximal inhibition (IC50).

In turn, `CC1CCC2(NC(=O)N(c3cncc4ccccc34)C2=O)c2ccccc21` (centres unmarked) [Z4929616137] showed an IC50 of 8 µM.

With `O=C(Cc1cncc2ccccc12)N1CCOc2ccc(Cl)cc2C1` [Z4946671001], the IC50 worked out at 5 µM.

The compound `Cc1ccc(F)cc1C(=O)C(=O)Nc1cncc(Br)c1C` [Z5420225795] returned an IC50 of 40 µM.

`COc1cc(C=O)c(OS(=O)(=O)CC2CCCCC2)cc1OC` [ZINC271072260] yielded an IC50 of 143 µM.

The compound `Cc1noc(C)c1CCCNc1nc(-c2ccncc2)nc2ccccc12` [ZINC301553312] gave an IC50 of 63 µM.

On to `COC(=O)c1cc(C#N)c(=O)n(Cc2cccc(F)c2Cl)c1` [ZINC338540162], for which the IC50 amounted to 30 µM.

Compound `O=C(Cc1cccnc1)N(Cc1ccccn1)c1ccc(Cl)cc1` [ZINC346371112] showed an IC50 of 98 µM.

Consider `CC1CN(C(=O)CCn2cc(Br)ccc2=O)Cc2ccccc2O1` (centres unmarked) [ZINC553840273], for which half-maximal inhibition (IC50) was put at 88 µM.

On to `Cc1cc(C(=O)C(=O)Nc2cnccc2F)ccc1F` [ZINC5420738300], for which the IC50 worked out at 160 µM.

Staying with this assay, now noted: pH 7.4, 0.05% Tween-20, 1 mM DTT, substrate 12.7 μM (Km); DMSO stock; possibly covalent warhead; read-out: IC50[DMSO].
Turning to ZINC795258204, the IC50 was 177 µM.
